Experimental data published in patent US20250042886A1, “BIS(HETERO)ARYL THIOETHER OXADIAZINES AS FUNGICIDAL COMPOUNDS” (Bayer Aktiengesellschaft, priority 2021, published 2025).

How the values were obtained:
Pyrenophora teres = Pyrenophora teres in vitro cell test; assay type: cell-based; conditions: 144 h, liquid culture, 6 days incubation, read-out: efficacy (inhibition of fungal growth); for inhibition at 20 ppm: 20 ppm of active ingredient; for inhibition at 50 µM: 50 μMol/l of active ingredient
Summary of the method: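 Compounds in DMSO were added to P. teres spore suspensions in glucose/peptone/yeast-extract liquid medium, testing inhibition of spore germination and mycelium growth. After 6 days, mycelium growth was read by absorbance. Inhibition was calculated relative to fungicide-free control wells.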

[1] = Measurement of Log P values by HPLC on reversed phase columns (EEC directive 79/831 Annex V.A8); assay type: physicochemical; conditions: Table 1, compounds of formula (I); method [a]: LC-UV, acidic range, 0.1% formic acid in water and acetonitrile
[2] = test system: Colletotrichum lindemuthianum; assay: Colletotrichum lindemuthianum in vitro cell test; assay type: cell-based; conditions: 144 h, liquid culture, 6 days incubation, read-out: efficacy (inhibition of fungal growth); for inhibition at 20 ppm: 20 ppm of active ingredient; for inhibition at 50 µM: 50 μMol/l of active ingredient
Summary of the method: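 C. lindemuthianum spores in liquid glucose–peptone–yeast extract medium were exposed to compounds dissolved in DMSO. After 6 days, mycelial growth was measured by absorbance, and inhibition was calculated against compound-free control wells.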

Pyricularia oryzae = assay: microbe, parasite or virus in culture; assay type: cell-based; conditions: 120 h; for inhibition at 20 ppm: read-out: efficacy (inhibition of fungal growth), 20 ppm of active ingredient, liquid culture, 5 days incubation; for inhibition at 50 µM: read-out: efficacy (inhibition of fungal growth), 50 μMol/l of active ingredient, liquid culture, 5 days incubation
Septoria tritici = Septoria tritici in vitro cell test; assay type: cell-based; conditions: Zymoseptoria tritici, 168 h; 20 ppm of active ingredient; liquid culture, 7 days incubation; read-out: efficacy (inhibition of fungal growth)
Method: B-11. Septoria tritici In Vitro Cell Test • Solvent: DMSO • Culture medium: 1 g KH2PO4 (VWR), 1 g K2HPO4 (VWR), 0.5 g Urea (VWR), 3 g KNO3 (Prolabo), 10 g saccharose (VWR), 0.5 g MgSO4, 7H2O (Sigma), 0.07 g CaCl2, 2H2O (Prolabo), 0.2 mg MnSO4, H2O (Sigma), 0.6 mg CuSO4, 5H2O (Sigma), 7.9 mg ZnSO4, 7H2O (Sigma), 0.1 mg H3BO3 (Merck), 0.14 mg NaMoO4, 2H2O (Sigma), 2 mg thiamine (Sigma), 0.1 mg biotine (VWR), 4 mg FeSO4, 7H2O (Sigma), QSP 1 liter • Inoculum: spore suspension Fungicides were solubilized in DMSO and the solution used to prepare the required range of concentrations. […] A spore suspension of S. tritici was prepared and diluted to the desired spore density. Fungicides were evaluated for their ability to inhibit spore germination and mycelium growth in liquid culture assay. The compounds were added in the desired concentration to the culture medium with spores. […] Inhibition of fungal growth was determined by comparing the absorbance values in wells containing the fungicides with the absorbance in control wells without fungicides.

Botrytis cinerea [3] = assay: Botrytis cinerea in vitro cell test; assay type: cell-based; conditions: 144 h, liquid culture, 6 days incubation, read-out: efficacy (inhibition of fungal growth); for inhibition at 20 ppm: 20 ppm of active ingredient; for inhibition at 50 µM: 50 μMol/l of active ingredient
Summary of the method: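 Compounds from DMSO stocks added at a range of concentrations to a defined mineral-salt/sucrose liquid medium inoculated with B. cinerea spores. After 6 days' incubation, mycelium growth was read by absorbance; inhibition of germination and growth was calculated against fungicide-free control wells.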

Alternaria alternata = Alternaria alternata in vitro cell test; assay type: cell-based; conditions: 120 h, 50 μMol/l of active ingredient, liquid culture, 5 days incubation, read-out: efficacy (inhibition of fungal growth)
Method: B-5. Alternaria alternata In Vitro Cell Test • Solvent: DMSO • Culture medium: 14.6 g anhydrous D-glucose (VWR), 7.1 g Mycological Peptone (Oxoid), 1.4 g granulated Yeast Extract (Merck), QSP 1 liter • Inoculum: spores suspension Fungicides were solubilized in DMSO and the solution used to prepare the required range of concentrations. […] A spore suspension of A. alternata was prepared and diluted to the desired spore density. Fungicides were evaluated for their ability to inhibit spore germination and mycelium growth in liquid culture assay. The compounds were added in the desired concentration to the culture medium with spores. After 5 days incubation, fungi-toxicity of compounds was determined by spectrometric measurement of mycelium growth. Inhibition of fungal growth was determined by comparing the absorbance values in wells containing the fungicides with the absorbance in control wells without fungicides.

Botrytis cinerea [4] = assay: In vivo preventive test on Botrytis cinerea (grey mould); conditions: 500 ppm of active ingredient, sprayed on young gherkin or cabbage plants 24 h before inoculation, evaluated 4 to 5 days after inoculation, read-out: efficacy
Summary of the method: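 Compounds in DMSO/acetone/Tween 80 were diluted in water and sprayed onto young gherkin or cabbage plants; controls got solvent only. After 24 h, leaves were sprayed with an aqueous Botrytis cinerea spore suspension.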

Alternaria brassicae = assay: In vivo preventive test on Alternaria brassicae (leaf spot on radish or cabbage); conditions: 500 ppm of active ingredient, sprayed on young radish or cabbage plants 24 h before inoculation, evaluated 3 to 4 days after inoculation, read-out: efficacy
Method: (§1) B-1. […] The active ingredients were made soluble and homogenized in a mixture of Dimethyl sulfoxide/Acetone//Tween® 80 and then diluted in water to the desired concentration. The young plants of radish or cabbage were treated by spraying the active ingredient prepared as described above. Control plants were treated only with an aqueous solution of Acetone/Dimethyl sulfoxide/Tween® 80. After 24 hours, the plants were contaminated by spraying the leaves with an aqueous suspension of Alternaria brassicae spores.

[5] = test system: Colletotrichum lindemuthianum; assay: In vivo preventive test on Colletotrichum lindemuthianum (leaf spot on bean); conditions: 168 h, 500 ppm of active ingredient, sprayed on young bean plants 24 h before inoculation, evaluated 7 days after inoculation, read-out: efficacy
Method: as §1, with “B-4.” for “B-1.”, “bean” for “radish or cabbage”, “Colletotrichum lindemuthianum” for “Alternaria brassicae”

Fusarium culmorum = Fusarium culmorum in vitro cell test; assay type: cell-based; conditions: 120 h, 50 μMol/l of active ingredient, liquid culture, 5 days incubation, read-out: efficacy (inhibition of fungal growth)
Summary of the method: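 Spores in liquid mineral-salts/saccharose medium exposed to compounds (DMSO ≤1% final) for 5 days. Mycelium growth measured spectrometrically, with inhibition derived from absorbance relative to fungicide-free control wells.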

SMILES | inhibition at 20 ppm (Pyrenophora teres) | chromatographic logP [1] | inhibition at 20 ppm [2] | inhibition at 20 ppm (Pyricularia oryzae) | inhibition at 20 ppm (Septoria tritici) | inhibition at 20 ppm (Botrytis cinerea [3]) | inhibition at 50 µM (Alternaria alternata) | pest or weed control at 500 ppm (Botrytis cinerea [4]) | inhibition at 50 µM [2] | inhibition at 50 µM (Pyricularia oryzae) | pest or weed control at 500 ppm (Alternaria brassicae) | pest or weed control at 500 ppm [5] | inhibition at 50 µM (Fusarium culmorum) | inhibition at 50 µM (Botrytis cinerea [3]) | inhibition at 50 µM (Pyrenophora teres)
FC(F)(F)c1cccc(Sc2nnc(Cl)cc2C2=NOC[C@H](Cc3ccc(Cl)cc3Cl)N2)c1 (racemic) [Compound I-016] | 90 to 100% | 4.86 | 90 to 100% | 80 to 89% | 70 to 79% | 90 to 100% |  |  |  |  |  |  |  |  | 
Cc1cc([C@H]2CON=C(c3c(Sc4ccccc4)nnc(C)c3C)N2)c(C)s1 (racemic) [Compound I-069] |  | 3.03 |  |  |  |  | 80 to 89% | 90 to 100% | 90 to 100% | 80 to 89% | 80 to 89% | 70 to 79% | 90 to 100% | 90 to 100% | 
Cc1ccc([C@H]2CON=C(c3c(Sc4cccc(C(F)(F)F)c4)nnc4ccccc34)N2)s1 (racemic) [Compound I-109] |  | 3.81 |  |  |  |  | 90 to 100% | 90 to 100% | 90 to 100% | 70 to 79% | 90 to 100% | 90 to 100% | 80 to 89% | 90 to 100% | 90 to 100%
Cc1cccc(Sc2nnc3ccccc3c2C2=NOC[C@H](c3ccc(C)s3)N2)n1 (racemic) [Compound I-066] |  | 2.69 |  |  |  |  |  | 90 to 100% | 90 to 100% | 70 to 79% | 80 to 89% | 70 to 79% | 70 to 79% | 90 to 100% | 
Cc1ccc([C@H]2CON=C(c3c(Sc4cccc(F)c4)nnc4ccccc34)N2)s1 (racemic) [Compound I-042] |  | 3.27 |  |  |  |  | 90 to 100% | 90 to 100% | 90 to 100% | 90 to 100% | 90 to 100% | 70 to 79% | 90 to 100% | 90 to 100% | 90 to 100%
Cc1ccc(C[C@@H]2CON=C(c3cc(Cl)nnc3S(=O)(=O)c3ccc(C(F)(F)F)cc3)N2)c(C)c1 (racemic) [Compound I-018] |  | 4.28 | 80 to 89% | 90 to 100% | 90 to 100% |  |  |  |  |  |  |  |  |  | 
Cc1ccc([C@H]2CON=C(c3c(Sc4cccc(Cl)c4)nnc4ccccc34)N2)s1 (racemic) [Compound I-135] |  | 3.61 |  |  |  |  | 90 to 100% | 90 to 100% | 90 to 100% | 90 to 100% | 90 to 100% | 90 to 100% | 90 to 100% | 90 to 100% | 90 to 100%
COc1cccc(Sc2cnc3ccccc3c2C2=NOC[C@H](Cc3ccc(C)cc3C)N2)c1 (racemic) [Compound I-012] | 90 to 100% | 4.06 | 90 to 100% |  | 70 to 79% | 90 to 100% |  |  |  |  |  |  |  |  | 
